Holding throughout (format): cell-based
Assay [1] concerns any organism tested (Pseudomonas aeruginosa, Staphylococcus aureus, Candida albicans, Aspergillus niger). In words: Synergy of other biocides paired with the surfactants, any organism tested. As to conditions: listed under Surf. D; except for one data point. As to the method: (§1) Surfactants and biocides were evaluated for synergy by determining the synergy index (S.I.) of the combination. Synergy index was calculated based on minimum inhibitory concentrations (MIC) of two antimicrobial compounds (A and B) alone and in combinations. The tests organisms were Gram negative bacteria (Pseudomonas aeruginosa ATCC #15442), Gram positive bacteria (Staphylococcus aureus ATCC #6538), yeast (Candida albicans ATCC#10203) and mold (Aspergillus niger ATCC#16404). Contact time for the bacteria was 24 and 48 hours, yeast was 48 and 72 hrs, and 3 and 7 days for mold. The test was carried out in 96 well microtiter plates. R^1O(CH2CH(CH3)O)5(CH2CH2O)9H, where R^1 is 2-ethylhexyl Surf. A R^2O(CH2CH(CH3)O)3(CH2CH2O)5H Surf. D R^2O(CH2CH(CH3)O)3(CH2CH2O)7H Surf. E In Surf. D and Surf. E, R^2 is a mixture of C8-C14 linear alkyl groups (70% C8-C10 linear alkyl and 30% C12-C14 linear alkyl) Inoculums Used
(§2) SI is calculated as follows: Ca/CA+Cb/CB=Synergy Index (“SI”) Wherein: • CA=concentration of compound A in ppm, acting alone, which produced an end point (MIC of Compound A). • Ca=concentration of compound A in ppm, in the mixture, which produced an end point. • CB=concentration of compound B in ppm, acting alone, which produced an end point (MIC of Compound B). • Cb=concentration of compound B in ppm, in the mixture, which produced an end point. […]

In assay [2] the test system is Staphylococcus aureus ATCC #6538. In words: MIC / synergy index test in 96 well microtiter plates, Gram positive bacteria. As to conditions: S. aureus, 1/10 TSB; for MIC: Staphylococcus aureus, ATCC6538, 24 h, DTEA alone, read-out: MIC alone, CB (compound B). As to the method:
as §1
(§3) The pH of the Triptic soy broth was 7.3 and the Potato dextrose broth was 5.1.
(§4) SI is calculated as follows: Ca/CA+Cb/CB=Synergy Index (“SI”) Wherein: • CA=concentration of compound A in ppm, acting alone, which produced an end point (MIC of Compound A). • Ca=concentration of compound A in ppm, in the mixture, which produced an end point. • CB=concentration of compound B in ppm, acting alone, which produced an end point (MIC of Compound B). • Cb=concentration of compound B in ppm, in the mixture, which produced an end point. When the sum of Ca/CA and Cb/CB is greater than one, antagonism is indicated.

For assay [3], the system named is Candida albicans ATCC#10203. In words: MIC / synergy index test in 96 well microtiter plates, yeast. As to conditions: C. albicans, PDB; for MIC: Candida albicans, ATCC10203, 48 h, DTEA alone, read-out: MIC alone, CB (compound B). As to the method:
as §1, §3, §4

The subject of assay [4] is Aspergillus niger ATCC#16404. In words: MIC / synergy index test in 96 well microtiter plates, mold. To be noted: 3rd day, PDB; for MIC: Aspergillus niger, ATCC16404, DTEA alone, A. niger, read-out: MIC alone, CB (compound B). The protocol:
as §1, §3, §4

Assay [5] relates to Pseudomonas aeruginosa ATCC #15442. The experiment in a line: MIC / synergy index test in 96 well microtiter plates, Gram negative bacteria. To be noted: ATCC15442, 24 h, read-out: MIC alone, CB (compound B). As to the method: as §1, with “Used […]” for “Used”
as §2

The mark [6] stands for this setting: inoculum 1.156E+06, Surf. A series.

Where two headings read alike, the source gives them in different places.

Regarding `Cn1sc2ccccc2c1=O` [MBIT], in assay [1], the “Ratio of surfactant to biocide where synergy was observed” value is reported as “synergistic only at 1:0.05 or worse”.
As to “R^1O(CH2CH(CH3)O)5(CH2CH2O)9H, where R^1 is 2-ethylhexyl [Surf. A]”, the “MIC alone, CA (compound A)” value is reported as above 20000 ppm in assay [2] (Surf. A alone, 24 hrs, inoculum 1.156E+06); above 20000 ppm in assay [3] (Surf. A alone, 48 hrs, inoculum 1.156E+06); above 20000 ppm in assay [4] (Surf. A alone, inoculum 1.156E+06).
Regarding `CCCCNC(=O)OCC#CI` [IPBC], the “Ratio of surfactant to biocide where synergy was observed” value in assay [1] is “synergistic only at 1:0.05 or worse”.
Broadly, the MIC is the lowest concentration found to suppress growth. Consider `CCCCCCCCCCSCCN` [DTEA, 2-decylthioethylamine], for which the minimal inhibitory concentration (MIC) in assay [2] (setting [6]) was determined as 4 µg/mL; in assay [2] (inoculum 1.156E+06, Surf. E series), 5 µg/mL; in assay [2] (inoculum 1.8E+05, Surf. D series), 5 µg/mL; in assay [5] it was 20 µg/mL; in assay [3] (setting [6]), 50 µg/mL; in assay [3] (inoculum 1.8E+06, Surf. E series), 50 µg/mL. The minimal inhibitory concentration (MIC) stood at 40 µg/mL in assay [3] (inoculum 5.72E+05, Surf. D series); 200 µg/mL in assay [4] (setting [6]); 100 µg/mL in assay [4] (inoculum 1.156E+06, Surf. D series); 200 µg/mL in assay [4] (inoculum 1.56E+06, Surf. E series).

Source of the values: patent publication US9913468B2, “Microbicidal composition” (Dow Global Technologies LLC, priority 2013, dated 2018).
